Assay results published in ChEMBL document CHEMBL1615345, “Evaluation of a published in silico model and construction of a novel Bayesian model for predicting phospholipidosis inducing potential” (J Chem Inf Model, 2007).

Experiments:
Phospholipidosis [1] = settings: rat
Phospholipidosis [2] = experiment: Phospholipidosis-positive literature compound observed in hamster; settings: cricetinae
Phospholipidosis [3] = experiment: Phospholipidosis-positive literature compound observed in mouse; format: ADME, organism-based; settings: in vivo
Phospholipidosis [4] = experiment: Phospholipidosis-positive literature compound observed in human; format: ADME
Phospholipidosis [5] = experiment: Phospholipidosis-positive literature compound observed in dog; format: ADME, Canis lupus familiaris
Phospholipidosis [6] = experiment: Phospholipidosis-positive literature compound observed in monkey; format: ADME; settings: cercopithecidae
Phospholipidosis [7] = experiment: Phospholipidosis-positive literature compound observed in Rhesus monkey; format: ADME, Macaca mulatta
Phospholipidosis [8] = experiment: Phospholipidosis-positive literature compound observed in guinea pig; format: ADME, Cavia porcellus
Phospholipidosis [9] = experiment: Phospholipidosis-positive literature compound observed in rabbit; format: ADME, Oryctolagus cuniculus
Phospholipidosis [10] = system: Phospholipidosis

Molecule | Phospholipidosis (Phospholipidosis [1]) | other results
CCOC(=O)C1N=C(c2ccccc2F)c2cc(Cl)ccc2NC1=O (configuration not stated) [ETHYL LOFLAZEPATE] | Active | 
CN(C)CCCN1c2ccccc2CCc2ccc(Cl)cc21 [CLOMIPRAMINE] | Active | 
CC[C@H]1CN2CCc3cc(OC)c(OC)cc3[C@@H]2C[C@@H]1C[C@H]1NCCc2cc(OC)c(OC)cc21 [EMETINE] | Active | 
CCN(CC)CCOc1ccc(C(O)(Cc2ccc(Cl)cc2)c2ccc(C)cc2)cc1 (configuration not stated) [TRIPARANOL] | Active | Phospholipidosis (Phospholipidosis [2]): Active; Phospholipidosis (Phospholipidosis [3]): Active
CN(C)CCCN(C)[C@H]1CC[C@H]2[C@@H]3CC=C4C[C@@H](O)CC[C@]4(C)[C@H]3CC[C@]12C [AZACOSTEROL] |  | Phospholipidosis (Phospholipidosis [3]): Active
CN1CCN(C2=Nc3cc(Cl)ccc3N(C)n3cccc32)CC1 | Active | 
NC[C@@H]1CC[C@@H](N)[C@@H](O[C@H]2[C@H](O)[C@@H](O[C@H]3O[C@H](CO)[C@@H](O)[C@H](N)[C@H]3O)[C@H](N)C[C@@H]2N)O1 [DIBEKACIN] | Active | 
CN1CCN(C(c2ccccc2)c2ccccc2)CC1 [CYCLIZINE] | Active | 
GENTAMICIN | Active | Phospholipidosis (Phospholipidosis [4]): Active; Phospholipidosis (Phospholipidosis [5]): Active
CN(C)C/C=C(/c1ccc(Br)cc1)c1cccnc1 [ZIMELDINE] | Active | Phospholipidosis (Phospholipidosis [5]): Active
NCCc1cc(O)c(O)cc1O [OXIDOPAMINE] | Active | 
CCCCc1oc2ccccc2c1C(=O)c1cc(I)c(OCCN(CC)CC)c(I)c1 [AMIODARONE] | Active | Phospholipidosis (Phospholipidosis [4]): Active
Clc1ccc(C(c2ccccc2)N2CCNCC2)cc1 (configuration not stated) [NORCHLORCYCLIZINE] | Active | 
CN(C)CCCn1c2c(c3ccccc31)CCCCCC2 [IPRINDOLE] | Active | 
Cc1cccc(CN2CCN(C(c3ccccc3)c3ccc(Cl)cc3)CC2)c1 (configuration not stated) [MECLIZINE] | Active | 
CCN(CC)CCOc1ccc2c(c1)C(=O)c1cc(OCCN(CC)CC)ccc1-2 [TILORONE] | Active | Phospholipidosis (Phospholipidosis [4]): Active
CN(C)CCC=C1c2ccccc2CCc2ccccc21 [AMITRIPTYLINE] | Active | 
NC[C@H]1O[C@H](O[C@H]2[C@H](O)[C@@H](O[C@H]3O[C@H](CO)[C@@H](O)[C@H](N)[C@H]3O)[C@H](N)C[C@@H]2N)[C@H](N)C[C@@H]1O [TOBRAMYCIN] | Active | Phospholipidosis (Phospholipidosis [4]): Active
CN(C)CCCC1c2ccccc2Nc2ccc(Cl)cc21 (configuration not stated) [CLOMACRAN] | Active | 

Molecule | Phospholipidosis (Phospholipidosis [1]) | other results
C1CCC(C(CC2CCCCN2)C2CCCCC2)CC1 (configuration not stated) [PERHEXILINE] | Active | Phospholipidosis (Phospholipidosis [3]): Active; Phospholipidosis (Phospholipidosis [4]): Active
CC(=O)N1CCN(c2ccc(OCC3COC(Cn4ccnc4)(c4ccc(Cl)cc4Cl)O3)cc2)CC1 (configuration not stated) [KETOCONAZOLE] |  | Phospholipidosis (Phospholipidosis [3]): Active
CC(C)N(CCC(CCN1CCCCC1)(C(N)=O)c1ccccc1Cl)C(C)C (configuration not stated) [DISOBUTAMIDE] | Active | Phospholipidosis (Phospholipidosis [6]): Active; Phospholipidosis (Phospholipidosis [5]): Active
CCN(CC)CCCC(C)Nc1ccnc2cc(Cl)ccc12 (configuration not stated) [CHLOROQUINE] | Active | Phospholipidosis (Phospholipidosis [7]): Active; Phospholipidosis (Phospholipidosis [3]): Active; Phospholipidosis (Phospholipidosis [4]): Active; Phospholipidosis (Phospholipidosis [5]): Active
CN1CCN(Cc2nc3cccc4c3c([n+]2[O-])-c2ccccc2-4)CC1 | Active | 
CCN(CC)Cc1cc(Nc2ccnc3cc(Cl)ccc23)ccc1O.Cl |  | Phospholipidosis (Phospholipidosis [4]): Active
CN1CCCN(C(c2ccccc2)c2ccc(Cl)cc2)CC1 (configuration not stated) [HOMOCHLORCYCLIZINE] | Active | 
CN1CCN(C(c2ccccc2)c2ccc(Cl)cc2)CC1 (configuration not stated) [CHLORCYCLIZINE] | Active | 
CCNC(C)Cc1cccc(C(F)(F)F)c1 (configuration not stated) [FENFLURAMINE] | Active | Phospholipidosis (Phospholipidosis [5]): Active; Phospholipidosis (Phospholipidosis [8]): Active
O=C(NC1CCN(CCc2c[nH]c3ccccc23)CC1)c1ccccc1 [INDORAMIN] | Active | 
CC/C(=C(\c1ccccc1)c1ccc(OCCN(C)C)cc1)c1ccccc1 [TAMOXIFEN] | Active | 
Clc1ccccc1CNC[C@H]1CC[C@H](CNCc2ccccc2Cl)CC1 | Active | Phospholipidosis (Phospholipidosis [9]): Active; Phospholipidosis (Phospholipidosis [3]): Active
OCCOCCN1CCN(C(c2ccccc2)c2ccc(Cl)cc2)CC1 (configuration not stated) [HYDROXYZINE] | Active | 
CN1CCN(C2=Nc3cc(Cl)ccc3Nc3ccccc32)CC1 [CLOZAPINE] | Active | 
CN(C)CCCN1c2ccccc2CCc2ccccc21 [IMIPRAMINE] | Active | 
N=C(N)c1ccc(/C=C/c2ccc(C(=N)N)cc2)cc1 [STILBAMIDINE] |  | Phospholipidosis (Phospholipidosis [4]): Active
CN(C)CCC=C1c2ccccc2CCc2c(Cl)cccc21 | Active | 
CCOc1ccc(NC(C)=O)cc1 [PHENACETIN] | Active | 
CN(C)CCC=C1c2ccccc2C=Cc2c(Cl)cccc21 | Active | 

Molecule | Phospholipidosis (Phospholipidosis [1]) | other results
CCCC[C@@H]1CC(=O)[C@]2(O)O[C@@H]3[C@@H](NC)[C@@H](O)[C@@H](NC)[C@H](O)[C@H]3O[C@@H]2O1.O=S(=O)(O)O | Active | 
NC[C@H]1Cc2ccc(F)cc2[C@@H](c2ccccc2)O1 | Active | 
CN(C)CCCC1(c2ccc(F)cc2)OCc2cc(C#N)ccc21 (configuration not stated) [CITALOPRAM] | Active | 
OC(CN1CCCCC1)c1ccc(C=C2c3ccccc3-c3ccccc32)cc1 (configuration not stated) | Active | 
CCN[C@@H]1C[C@H](N)[C@@H](O[C@H]2OC(CN)=CC[C@H]2N)[C@H](O)[C@H]1O[C@H]1OC[C@](C)(O)[C@H](NC)[C@H]1O [NETILMICIN] | Active | 
Cc1ccc(C(=O)Nc2ccc(S(=O)(=O)O)c3cc(S(=O)(=O)O)cc(S(=O)(=O)O)c23)cc1NC(=O)c1cccc(NC(=O)Nc2cccc(C(=O)Nc3cc(C(=O)Nc4ccc(S(=O)(=O)O)c5cc(S(=O)(=O)O)cc(S(=O)(=O)O)c45)ccc3C)c2)c1 [SURAMIN] | Active | 
NCC[C@H](O)C(=O)N[C@@H]1C[C@H](N)[C@@H](O[C@H]2O[C@H](CN)[C@@H](O)[C@H](O)[C@H]2O)[C@H](O)[C@H]1O[C@H]1O[C@H](CO)[C@@H](O)[C@H](N)[C@H]1O [AMIKACIN] | Active | 
CN(C)CCCN1c2ccccc2Sc2ccc(Cl)cc21 [CHLORPROMAZINE] | Active | Phospholipidosis (Phospholipidosis [5]): Active
C[n+]1ccc(-c2cc[n+](C)cc2)cc1 |  | Phospholipidosis (Phospholipidosis [3]): Active
CC(C)(N)Cc1ccc(Cl)cc1 [CHLORPHENTERMINE] | Active | Phospholipidosis (Phospholipidosis [9]): Active; Phospholipidosis (Phospholipidosis [3]): Active; Phospholipidosis (Phospholipidosis [5]): Active
CCC[C@@H]1C[C@@H](C(=O)N[C@@H]([C@H]2O[C@H](SC)[C@H](O)[C@@H](O)[C@H]2O)[C@H](C)Cl)N(C)C1 [CLINDAMYCIN] | Active | Phospholipidosis (Phospholipidosis [5]): Active
FC(F)(F)c1ccc(-c2ccc(OCCN3CCCC3)cc2)cc1 [BOXIDINE] | Active | 
CCN(CC)CCCC(C)Nc1c2ccc(Cl)cc2nc2ccc(OC)cc12 (configuration not stated) [QUINACRINE] | Active | 
CNCCCC12CCC(c3ccccc31)c1ccccc12 [MAPROTILINE] | Active | 
CC[C@H]1OC(=O)[C@H](C)[C@@H](O[C@H]2C[C@@](C)(OC)[C@@H](O)[C@H](C)O2)[C@H](C)[C@@H](O[C@@H]2O[C@H](C)C[C@H](N(C)C)[C@H]2O)[C@](C)(O)C[C@@H](C)C(=O)[C@H](C)[C@@H](O)[C@]1(C)O [ERYTHROMYCIN] | Active | Phospholipidosis (Phospholipidosis [5]): Active
CCN(CC)CCn1nc2c3c(c(C)ccc31)Sc1cc(Cl)ccc1-2 | Active | 
CCC(c1ccc(OCCN(CC)CC)cc1)C(CC)c1ccc(OCCN(CC)CC)cc1 (configuration not stated) [CORALGIL] | Active | Phospholipidosis (Phospholipidosis [2]): Active; Phospholipidosis (Phospholipidosis [9]): Active; Phospholipidosis (Phospholipidosis [3]): Active; Phospholipidosis (Phospholipidosis [4]): Active; Phospholipidosis (Phospholipidosis [5]): Active
C=C1C[C@@H]1C[C@H](N)C(=O)O |  | Phospholipidosis (Phospholipidosis [10]): Not Active
